Target: Beta-secretase 1 (Homo sapiens, UniProt P56817)
Assay: Fluorescence Quench Assay: The inhibitory activity of compounds was assessed by a fluorescence quench assay of BACE1 activity using commercially available substrate HiLyte Fluor 488-[…](QXLT 520)-OH (SEQ ID NO:1) AnaSpec, San Jose, Calif.) and truncated human beta-secretase, BACE1 (amino acids 1-454) fused to a myc-his tag and secreted from HEK293/BACEect. cells into OptiMEM (Invitrogen). The substrate was dissolved at 1 mg/ml in DMSO.The assay was performed in the presence of OptiMEM (supernatant collected over 24 h and cleared from cellular debris by centrifugation) containing the ectodomain of BACE1, 25 ul water containing the desired 2-fold concentration of test compound and 2% DMSO, 1 uM substrate peptide, 20 mM NaOAc, pH 4.4, and 0.04% Triton-X100 in a total assay volume of 50 ul in a 384 well plate. In general, 25 ul of compound dilution were given to the plate followed by the addition of 10 ul of BACE1 containing OptiMEM diluted 1:10 in water.

Sequence of Beta-secretase 1 (P56817 whole entry, the tested form may be a part): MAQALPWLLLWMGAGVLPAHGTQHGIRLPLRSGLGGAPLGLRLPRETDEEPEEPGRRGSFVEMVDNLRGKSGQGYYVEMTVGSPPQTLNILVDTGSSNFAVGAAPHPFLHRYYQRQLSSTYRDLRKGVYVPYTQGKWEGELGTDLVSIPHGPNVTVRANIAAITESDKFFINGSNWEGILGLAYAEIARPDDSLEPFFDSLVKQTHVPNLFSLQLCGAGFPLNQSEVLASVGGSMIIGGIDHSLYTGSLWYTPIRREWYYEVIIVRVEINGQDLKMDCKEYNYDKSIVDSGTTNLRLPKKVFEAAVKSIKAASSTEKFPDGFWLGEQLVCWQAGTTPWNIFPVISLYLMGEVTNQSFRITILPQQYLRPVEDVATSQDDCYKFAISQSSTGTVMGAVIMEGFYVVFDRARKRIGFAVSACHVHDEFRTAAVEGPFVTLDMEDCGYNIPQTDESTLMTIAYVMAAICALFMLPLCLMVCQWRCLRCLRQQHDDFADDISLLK

IC50: 11 nM
Structure (SMILES): CO[C@H]1CC[C@@]2(Cc3ccc(C#N)cc3[C@]23N=C(N)N(Cc2ncccn2)C3=O)C[C@@H]1C
